Results published in patent US12564582B2 (Prilenia Neurotherapeutics Ltd., priority 2016, dated 2026).
Read-outs that look alike come from different tables or passages of the source.

Tests used:
[1] = test system: patients with Huntington's disease; conditions: for Δ to placebo, change from baseline in UHDRS TMS Gait and Balances: Week 52; for Δ to placebo, change from baseline in UHDRS TMS Gait and Balance: BL TFC≥7
From the text: • CIBIC-Plus global score as compared to baseline • Change from baseline in the PDS score • Change from baseline in UHDRS FA • CGIC as compared to baseline • Change from baseline in UHDRS TFC • Change from baseline in UHDRS IS Global/Functional Scales: • Change from baseline in HD QOL • Change from baseline in Walk-12 scale TMS Subscores: • Change from baseline in hand movement score (defined as the sum of UHDRS domains finger taps, pronate-supinate hands and luria [fist-hand-palm test]) • Change from baseline in Gait and balance score (defined as the sum of UHDRS domains gait, tandem walking and retropulsion pull test) • Change from baseline in UHDRS mMS (defined as the sum of UHDRS domains dysarthria, tongue protrusion, finger taps, pronate-supinate hands, luria, rigidity, bradykinesia, gait, tandem walking, retropulsion pull test) • Change from baseline in UHDRS Chorea • Change from baseline in UHDRS Dystonia • Responders, defined as patients with UHDRS TMS change from baseline≤0 Other Motor Assessments: • Change from baseline in Q Motor measurements including digitomotography (speeded index finger tapping), dysdiadochomotography (pronation/supination hand tapping), manumotography and choreomotography (grip force and chorea analysis) and pedomotography (speeded foot tapping) • Change from baseline in the TUG test Cognitive/Psychiatric Assessments: • Change from baseline in HD-CAB brief: SDMT, Emotion Recognition, Trail Making Test, HVLT-R, Paced Tapping at 3 Hz, OTS. • Change from baseline in PBA-s Safety Variables and Endpoints
The gait and balance score is defined as the sum of UHDRS domains gait, tandem walking and retropulsion pull test.

L-DOPA-induced dystonia = test system: L-DOPA-induced dystonia
From the text: Data are median (FIG. 19A) with individual values (FIG. 19BB). N=8 for all treatment groups. */**/*** represents P<0.05, P<0.01 or P<0.001 cf. vehicle-treatment. 2-way RM ANOVA (FIG. 19A) with Holm-Sidak's test or Friedman test with Dunn's test (FIG. 19B).

[2] = test system: patients with Huntington's disease; conditions: after 26 weeks of treatment
From the text: The TFC scale of the UHDRS is a standardized scale used to assess 5 functional domains associated with disability shown below (occupation, finances, domestic chores (e.g. laundry, washing dishes), activities of daily living, and care level).

[3] = test system: patients with Huntington's disease; conditions: for Δ to placebo, change from baseline in Q-Motor: Tap-Speed-Inter-Onset-interval-MN-Hand: Week 52
From the text: The patient places their hand on a hand rest with their index finger positioned above a force-transducer. Recordings start after practice runs. The patient is instructed to finger tap as fast as possible between 2 auditory cues. The beginning of a tap is defined as a rise of the force by 0.05 N above maximal baseline level. The tap ends when it drops to 0.05 N before the maximal baseline level is reached again. The duration and variability of tap durations (TD), inter onset intervals (IOI), inter peak intervals (IPI), and inter tap intervals (ITI) are the exploratory outcome measures for speeded tapping. In addition, variability of peak tapping forces (TF) is calculated as coefficient of variation, and the tapping frequency (Freq), i.e., the number of taps between the onsets of the first and the last tap divided by the time in between, is determined. Five trials of 10 seconds duration are performed with each hand.

neuroblastoma cell line = conditions: SIR-dependent manner (Geva 2016); cited from earlier work
[4] = test system: patients with DYT1 and other primary genetic forms of dystonia; conditions: 45 mg b.i.d., 90 mg b.i.d.; 26 weeks
From the text: The study population consists of those with DYT1 and other primary genetic forms of dystonia, as confirmed by genetic testing. The study's other inclusion criteria are patients with a BFMD score greater than 6, male or female patients, patients of any race or ethnicity, and patients with the ability to provide informed consent.
Burke-Fahn-Marsden Dystonia Rating Scale (BFMDRS) Rating Scale evaluates nine body parts (eyes, mouth, speech, swallowing, neck, trunk, right arm, right leg, left arm, and left leg) by rating the severity factor and provoking factors for each part on a 5 point scale of 0 (no dystonia) to 4 (indicating the presence of dystonia at rest). The dystonia scores of the eyes, mouth and neck are assigned a weighting factor of 0.5, while the other 6 parts are assigned a weighting factor of 1.0. The score of each part is obtained by multiplying the provoking factor by the severity factor and the weighting factor, and then summing the scores of each part. The maximum score possible is 120. A higher score indicates more severe dystonia. […]

[5] = test system: patients with Huntington's disease
Experimental: These variables were analyzed in the same way as the primary efficacy endpoint except that the variable evaluation at baseline were included in the model instead of baseline UHDRS-TMS.

[6] = 45 mg bid, Week 26, Stage 1 BL TFC 11-13
[7] = 45 mg bid, Week 52, Stage 1 BL TFC 11-13
[8] = 45 mg bid, Week 52, all pridopidine treated patients
[9] = 67.5 mg bid, Week 26, Stage 1 BL TFC 11-13
[10] = 67.5 mg bid, Week 52, Stage 1 BL TFC 11-13
[11] = 67.5 mg bid, Week 52, all pridopidine treated patients
[12] = 90 mg bid, Week 26, Stage 1 BL TFC 11-13
[13] = 90 mg bid, Week 52, Stage 1 BL TFC 11-13
[14] = 90 mg bid, Week 52, all pridopidine treated patients
[15] = 112.5 mg bid, Week 26, Stage 1 BL TFC 11-13
[16] = 112.5 mg bid, Week 52, Stage 1 BL TFC 11-13
[17] = 112.5 mg bid, Week 52, all pridopidine treated patients

CCCN1CCC(c2cccc(S(C)(=O)=O)c2)CC1 [pridopidine, 4-[3-(methylsulfonyl)phenyl]-1-propyl-piperidine]
Δ to placebo, change from baseline in UHDRS TMS Gait and Balances ([1]; 45 mg bid, Stage 1 BL TFC 11-13): −0.94
Δ to placebo, change from baseline in UHDRS TMS Gait and Balances ([1]; 45 mg bid, all pridopidine treated patients): −0.09
Δ to placebo, change from baseline in UHDRS TMS Gait and Balance ([1]; 45 mg bid, week 26): −0.48
Δ to placebo, change from baseline in UHDRS TMS Gait and Balance ([1]; 45 mg bid, week 52): −0.41
Δ to placebo, change from baseline in UHDRS TMS Gait and Balances ([1]; 67.5 mg bid, Stage 1 BL TFC 11-13): −0.53
Δ to placebo, change from baseline in UHDRS TMS Gait and Balances ([1]; 67.5 mg bid, all pridopidine treated patients): −0.05
Δ to placebo, change from baseline in UHDRS TMS Gait and Balance ([1]; 67.5 mg bid, week 26): −0.37
Δ to placebo, change from baseline in UHDRS TMS Gait and Balance ([1]; 67.5 mg bid, week 52): −0.43
Δ to placebo, change from baseline in UHDRS TMS Gait and Balances ([1]; 90 mg bid, Stage 1 BL TFC 11-13): −0.49
Δ to placebo, change from baseline in UHDRS TMS Gait and Balances ([1]; 90 mg bid, all pridopidine treated patients): −0.01
Δ to placebo, change from baseline in UHDRS TMS Gait and Balance ([1]; 90 mg bid, week 26): −0.62
Δ to placebo, change from baseline in UHDRS TMS Gait and Balance ([1]; 90 mg bid, week 52): −0.28
Δ to placebo, change from baseline in UHDRS TMS Gait and Balances ([1]; 112.5 mg bid, Stage 1 BL TFC 11-13): −0.4
Δ to placebo, change from baseline in UHDRS TMS Gait and Balances ([1]; 112.5 mg bid, all pridopidine treated patients): 0.04
Δ to placebo, change from baseline in UHDRS TMS Gait and Balance ([1]; 112.5 mg bid, week 26): −0.49
Δ to placebo, change from baseline in UHDRS TMS Gait and Balance ([1]; 112.5 mg bid, week 52): −0.09
levels of dystonia, significance cf. LDh-vehicle (L-DOPA-induced dystonia; 15 mg/kg, 1 h epoch 1): ns
levels of dystonia, significance cf. LDh-vehicle (L-DOPA-induced dystonia; 15 mg/kg, 1 h epoch 2): ns
levels of dystonia, significance cf. LDh-vehicle (L-DOPA-induced dystonia; 15 mg/kg, 1 h epoch 3): ns
levels of dystonia, significance cf. LDh-vehicle (L-DOPA-induced dystonia; 15 mg/kg, 1 h epoch 4): ns
levels of dystonia, significance cf. LDh-vehicle (L-DOPA-induced dystonia; 15 mg/kg, 1 h epoch 5): ns
levels of dystonia, significance cf. LDh-vehicle (L-DOPA-induced dystonia; 15 mg/kg, 1 h epoch 6): ns
levels of dystonia, significance cf. LDh-vehicle (L-DOPA-induced dystonia; 20 mg/kg, 1 h epoch 1): * (P<0.05)
levels of dystonia, significance cf. LDh-vehicle (L-DOPA-induced dystonia; 20 mg/kg, 1 h epoch 2): ns
levels of dystonia, significance cf. LDh-vehicle (L-DOPA-induced dystonia; 20 mg/kg, 1 h epoch 3): ns
levels of dystonia, significance cf. LDh-vehicle (L-DOPA-induced dystonia; 20 mg/kg, 1 h epoch 4): ns
levels of dystonia, significance cf. LDh-vehicle (L-DOPA-induced dystonia; 20 mg/kg, 1 h epoch 5): ns
levels of dystonia, significance cf. LDh-vehicle (L-DOPA-induced dystonia; 20 mg/kg, 1 h epoch 6): ns
median levels of dystonia (L-DOPA-induced dystonia; 20 mg/kg, first hour): between moderate and marked
levels of dystonia, significance cf. LDh-vehicle (L-DOPA-induced dystonia; 30 mg/kg, 1 h epoch 1): ** (P<0.01)
levels of dystonia, significance cf. LDh-vehicle (L-DOPA-induced dystonia; 30 mg/kg, 1 h epoch 2): *** (P<0.001)
levels of dystonia, significance cf. LDh-vehicle (L-DOPA-induced dystonia; 30 mg/kg, 1 h epoch 3): * (P<0.05)
levels of dystonia, significance cf. LDh-vehicle (L-DOPA-induced dystonia; 30 mg/kg, 1 h epoch 4): ns
levels of dystonia, significance cf. LDh-vehicle (L-DOPA-induced dystonia; 30 mg/kg, 1 h epoch 5): ns
levels of dystonia, significance cf. LDh-vehicle (L-DOPA-induced dystonia; 30 mg/kg, 1 h epoch 6): ns
median levels of dystonia (printed dyskinesia) (L-DOPA-induced dystonia; 30 mg/kg, cumulated over 0-2 h): below mild (non-disabling)
reduction of median levels of dystonia compared to LDh-vehicle (L-DOPA-induced dystonia; 30 mg/kg, cumulated over 0-2 h): 72%
median levels of dystonia (L-DOPA-induced dystonia; 30 mg/kg, first, second and third hours): mild to moderate
levels of L-DOPA-induced dystonia evoked by LDh (L-DOPA-induced dystonia; 15, 20, 30 mg/kg combined with LDh): significant and dose-dependent reduction
Total Functional Capacity (TFC) [2]: trends favoring pridopidine
Δ to placebo, change from baseline in Q-Motor: Tap-Speed-Inter-Onset-interval-MN-Hand ([3]; 45 mg bid, FAS): -0.0402 s
Δ to placebo, change from baseline in Q-Motor: Tap-Speed-Inter-Onset-interval-MN-Hand ([3]; 45 mg bid, HD1 and HD2 patients): -0.0351 s
Δ to placebo, change from baseline in Q-Motor: Tap-Speed-Inter-Onset-interval-MN-Hand ([3]; 67.5 mg bid, FAS): 0.0152 s
Δ to placebo, change from baseline in Q-Motor: Tap-Speed-Inter-Onset-interval-MN-Hand ([3]; 67.5 mg bid, HD1 and HD2 patients): -0.0464 s
Q-Motor Tap Speed Inter Onset interval (IOI) ([3]; 90 mg bid): consistent and significant improvement from baseline
Q-Motor Tap-Speed-Frequency ([3]; 90 mg bid): consistent improvement from baseline
Δ to placebo, change from baseline in Q-Motor: Tap-Speed-Inter-Onset-interval-MN-Hand ([3]; 90 mg bid, FAS): -0.0064 s
Δ to placebo, change from baseline in Q-Motor: Tap-Speed-Inter-Onset-interval-MN-Hand ([3]; 90 mg bid, HD1 and HD2 patients): -0.0291 s
Δ to placebo, change from baseline in Q-Motor: Tap-Speed-Inter-Onset-interval-MN-Hand ([3]; 112.5 mg bid, FAS): -0.017 s
Δ to placebo, change from baseline in Q-Motor: Tap-Speed-Inter-Onset-interval-MN-Hand ([3]; 112.5 mg bid, HD1 and HD2 patients): -0.022 s
secretion of brain-derived neurotrophic factor (BDNF) (neuroblastoma cell line): enhances secretion
secondary outcomes (CGI, Patient Global Assessment, VAS pain, BFMDS, EQ-5D, SF-36 etc.) [4]: improve the secondary outcomes
severity of dystonia (BFMDRS or UDRS), primary endpoint [4]: improve the severity of dystonia
Δ to placebo, change from baseline in UHDRS TMS Excluding Dystonia ([5]; 45 mg bid, Week 26, ALL): 1.39
Δ to placebo, change from baseline in UHDRS TMS Involuntary Movements ([5]; 45 mg bid, Week 26, ALL): 0.89
Δ to placebo, change from baseline in UHDRS TMS Excluding Dystonia [5, 6]: −3.6
Δ to placebo, change from baseline in UHDRS TMS Involuntary Movements [5, 6]: −2.49
Δ to placebo, change from baseline in UHDRS TMS Excluding Chorea [5, 7]: −4.09
Δ to placebo, change from baseline in UHDRS TMS Involuntary Movements [5, 7]: −2.73
Δ to placebo, change from baseline in UHDRS TMS Excluding Chorea [5, 8]: 0.05
Δ to placebo, change from baseline in UHDRS TMS Involuntary Movements [5, 8]: 0.02
Δ to placebo, change from baseline in UHDRS TMS Excluding Dystonia ([5]; 67.5 mg bid, Week 26, ALL): 1.97
Δ to placebo, change from baseline in UHDRS TMS Involuntary Movements ([5]; 67.5 mg bid, Week 26, ALL): 0.48
Δ to placebo, change from baseline in UHDRS TMS Excluding Dystonia [5, 9]: −2.2
Δ to placebo, change from baseline in UHDRS TMS Involuntary Movements [5, 9]: −3.07
Δ to placebo, change from baseline in UHDRS TMS Excluding Chorea [5, 10]: −0.18
Δ to placebo, change from baseline in UHDRS TMS Involuntary Movements [5, 10]: −0.2
Δ to placebo, change from baseline in UHDRS TMS Excluding Chorea [5, 11]: 1.31
Δ to placebo, change from baseline in UHDRS TMS Involuntary Movements [5, 11]: 0.8
Δ to placebo, change from baseline in UHDRS TMS Excluding Dystonia ([5]; 90 mg bid, Week 26, ALL): 1.2
Δ to placebo, change from baseline in UHDRS TMS Involuntary Movements ([5]; 90 mg bid, Week 26, ALL): 0.01
Δ to placebo, change from baseline in UHDRS TMS Excluding Dystonia [5, 12]: −4.35
Δ to placebo, change from baseline in UHDRS TMS Involuntary Movements [5, 12]: −4
Δ to placebo, change from baseline in UHDRS TMS Excluding Chorea [5, 13]: −4.92
Δ to placebo, change from baseline in UHDRS TMS Involuntary Movements [5, 13]: −3.8
Δ to placebo, change from baseline in UHDRS TMS Excluding Chorea [5, 14]: 1.67
Δ to placebo, change from baseline in UHDRS TMS Involuntary Movements [5, 14]: −0.26
Δ to placebo, change from baseline in UHDRS TMS Excluding Dystonia ([5]; 112.5 mg bid, Week 26, ALL): 2.4
Δ to placebo, change from baseline in UHDRS TMS Involuntary Movements ([5]; 112.5 mg bid, Week 26, ALL): 0.76
Δ to placebo, change from baseline in UHDRS TMS Excluding Dystonia [5, 15]: −4.31
Δ to placebo, change from baseline in UHDRS TMS Involuntary Movements [5, 15]: −1.64
Δ to placebo, change from baseline in UHDRS TMS Excluding Chorea [5, 16]: −1.59
Δ to placebo, change from baseline in UHDRS TMS Involuntary Movements [5, 16]: 0.8
Δ to placebo, change from baseline in UHDRS TMS Excluding Chorea [5, 17]: 1.94
Δ to placebo, change from baseline in UHDRS TMS Involuntary Movements [5, 17]: 0.57
